US20170239212A1, “[…] AND USE THEREOF AS ANTIVIRAL AGENTS” (priority 2014, published 2017)
Read-outs that look alike come from different tables or passages of the source.

Key:
[1] = ester bond, 2,4,6-trichlorobenzoyl chloride / Et3N / DMAP, toluene, 40.0 °C, 14.0 h
in vitro = assay type: cell-based; settings: human; Jurkat cells, knock down of cellular ATP
Experimental: (§1) The compounds were also tested in the T cell derived Jurkat cell line transfected with a luciferase reporter under control of an HIV long terminal repeat (LTR) promoter. Specifically, EC50 and CC50 values were determined in parallel using 10 concentrations of compound from 3 fold serial dilutions starting a 5 uM as the highest concentration. Cells and media were added to compounds with a final concentration of DMSO of 1% and incubated at 37° C., 5% CO2 for 24, 48 and 72 hours. EC50 was measured by induced luciferase activity detected by the use of the Steady-Glo® Luciferase reagent (PROMEGA) with an EnVision (Perkin-Elmer) plate reader. CC50 was determined by the dose dependent knock down of cellular ATP detected by the use of CellTiter-Glo® Luminescent Cell Viability reagent (PROMEGA) with an EnVision (Perkin-Elmer) plate reader.

[2] = tested on: HIV long terminal repeat (LTR) promoter; experiment: cells; assay type: cell-based; settings: Jurkat cells; for EC50: Human immunodeficiency virus 1, LTR-luciferase, incubated 24, 48 and 72 hours (time of the listed values not stated); for selectivity ratio: human; for selectivity ratio / Selectivity (CC50:EC50): ratio of the CC50 to the EC50
Experimental: as §1

[3] = tested on: HIV long terminal repeat (LTR) promoter; experiment: HOS LTR stimulation assay (luciferase reporter); assay type: cell-based; settings: HOS cells
Experimental: In the assay, non T cell derived human osteosarcoma (HOS) cells are transfected with a luciferase reporter under control of an HIV long terminal repeat (LTR) promoter. Compounds that stimulate the HIV LTR promoter will produce luciferase in a dose dependent manner.
as §1, with “Specifically,” for “The compounds were also tested in the T cell derived Jurkat cell line transfected with a luciferase reporter under control of an HIV long terminal repeat (LTR) promoter. Specifically,”
The error bars represent the average and the standard error of the mean of at least three independent experiments.

[4] = tested on: human osteosarcoma (HOS) cells; experiment: HOS cell viability (CellTiter-Glo, cellular ATP); assay type: cell-based; design: unit not given here; settings: knock down of cellular ATP
Experimental: as §1, with “Specifically,” for “The compounds were also tested in the T cell derived Jurkat cell line transfected with a luciferase reporter under control of an HIV long terminal repeat (LTR) promoter. Specifically,”

U937 cells [5] = experiment: Attachment of U937 cells; assay type: cell-based, human; settings: 72 hours
Experimental: (§2) U937 cells (Sundstrom, C.; Nilsson, K.: Establishment and characterization of a human histiocytic lymphoma cell line (U-937). Int. J. Cancer 1976, 17: 565-577), purchased from ATCC (Manassas, Va.) and cultured in RPMI-1640 medium supplemented with 10% FBS (ATCC, Manassas, Va.), were plated in 35 mm dishes at a density of 2×10^5 living cells/ml and treated with different concentrations of the drugs or DMSO. After 72 hours, the number of cells in the supernatant (non-attached cells) and the number of attached cells (after trypsinization) were counted using a Beckman particle counter (Beckman Coulter Inc., Fullerton, Calif.). The number of attached cells is expressed as percent of total cells (FIGS. 8-10).
(§3) U937 cells were treated with PMA (0.1-100 nM), bryostatin 1 (1-1000 nM), the indicated compound (1-1000 nM), 10 nM PMA with different concentrations of bryostatin 1 (1-1000 nM) or 10 nM PMA with different concentrations of indicated compound (1-1000 nM) for 72 hours. The number of attached cells and total cells were counted and the attached cells were graphed as percent of total cells. The bars and error bars represent the average and the standard error of the mean of five independent experiment (FIGS. 8-10).
(§4) U937 cells (Sundstrom and Nilsson, 1976), purchased from ATCC (Manassas, Va.) and cultured in RPMI-1640 medium supplemented with 10% FBS (ATCC, Manassas, Va.), were plated in 35 mm dishes at a density of 1×10^5 living cells/ml and treated with different concentrations of the drugs or DMSO. After 72 hours, the number of cells in the supernatant (non-attached cells) and the number of attached cells (after trypsinization) were counted using a particle counter. The number of attached cells is expressed as percent of total cells.
(§5) U937 cells were treated with PMA (0.01-100 nM), bryostatin 1 (0.1-1000 nM), analogue 12 (MERLE 28) (0.1-1000 nM), 10 nM PMA with different concentrations of bryostatin 1 (0.1-1000 nM) or 10 nM PMA with different concentrations of analogue 12 (0.1-1000 nM). The number of attached cells and total cells were counted and the attached cells were graphed as percent of total cells. The bars and error bars represent the average and the standard error of the mean of at least three independent experiments.
as §4
as §3, with “at least three” for “five”, “experiments.” for “experiment (FIGS. 8-10).”

U937 cells [6] = experiment: Inhibition of U937 cell proliferation; assay type: cell-based, human
Experimental: as §2
as §3, with “nM).” for “nM) for 72 hours.”, “attached and non-attached” for “attached”, “was” for “and total cells were”, “number” for “attached cells were graphed as percent”, “cells was expressed as % of control.” for “cells.”, “experiments” for “experiment”
as §4
as §5, with “The numbers” for “The number”, “attached” for “attached cells”, “and non-attached” for “and total”, “the number” for “the attached cells were graphed as percent”, “total cells was expressed as % of control.” for “total cells.”
as §4
U937 cells were treated with PMA (0.1-100 nM), bryostatin 1 (1-1000 nM), the indicated compound (1-1000 nM), 10 nM PMA with different concentrations of bryostatin 1 (1-1000 nM) or 10 nM PMA with different concentrations of indicated compound (1-1000 nM). The number of attached and non-attached cells was counted and the number of total cells was expressed as % of control. The bars and error bars represent the average and the standard error of the mean of at least three independent experiments.

[7] = 10 nM PMA with different concentrations of compound

C=C1C[C@H]2C[C@H]3C[C@@H](O[Si](CC)(CC)CC)C[C@@H](C[C@@H](OCc4ccc(OC)cc4)CC(=O)O[C@@H]([C@@H](C)OCOCc4ccccc4)C[C@@H]4C/C(=C\C(=O)OC)[C@H](OC(=O)CCCCCCC)[C@@](OC)(O4)C(C)(C)/C=C/[C@@H](C1)O2)O3
ring closure, yield of all isomers ([1]; from C=C1C[C@@H](C[C@H]2C[C@@H](O[Si](CC)(CC)CC)C[C@@H](C[C@H](CC(=O)O)OCc3ccc(OC)cc3)O2)O[C@@H](/C=C/C(C)(C)[C@]2(OC)O[C@H](C[C@@H](O)[C@@H](C)OCOCc3ccccc3)C/C(=C\C(=O)OC)[C@@H]2OC(=O)CCCCCCC)C1, 0.79 mM): 91%

CC(=O)O[C@@]12C[C@@H](C)[C@@]3(O)[C@@H](C=C(CO)C[C@]4(O)C(=O)C(C)=C[C@@H]34)[C@@H]1C2(C)C [Prostratin]
CC50 (in vitro): 370 nM | EC50 [2]: 130 nM | selectivity ratio [2]: 2.8 | Max signal (% of control) ([3]; LTR-luciferase signal): 274 % of control | Conc (uM) at Max ([3]; concentration at maximal LTR-luciferase signal): 27.78 µM | EC50 ([3]; Human immunodeficiency virus 1, LTR-luciferase, incubated 24, 48 and 72 hours (time of the listed values not stated), read-out: EC50): 1080 nM | CCEC50 [4]: >50

C=C1C[C@H]2CC3(O)O[C@H](C[C@@H](O)CC(=O)O[C@@H]([C@@H](C)O)C[C@@H]4C/C(=C\C(=O)OC)[C@H](OC(=O)/C=C/C=C/CCC)[C@@](O)(O4)C(C)(C)/C=C/[C@@H](C1)O2)C[C@H](OC(C)=O)C3(C)C [MERLE 28]
Block of PMA-induced attachment of U937 cells (U937 cells [5]; [7]): blocks the effect of the phorbol ester when the two agents are administered together | Attachment of U937 cells (attached cells as percent of total) (U937 cells [5]; compound alone): approaches that of bryostatin 1 itself | Block of PMA inhibition of U937 cell proliferation (U937 cells [6]; [7]): Both of these aspects of bryostatin 1 induced biological response are captured | Inhibition of U937 cell proliferation (total cells as % of control) (U937 cells [6]; compound alone, 72 hours): very similar to those for bryostatin 1

C=C1C[C@@H]2C[C@@H]3CC(=C)C[C@H](/C=C/C(C)(C)[C@]4(OC)O[C@@H](C/C(=C\C(=O)OC)[C@@H]4OC(=O)/C=C/C=C/CCC)C[C@H]([C@@H](C)OCOCc4ccccc4)OC(=O)C[C@H](OCc4ccc(OC)cc4)C[C@H](C1)O2)O3
ring closure, yield of all isomers ([1]; from C=C1C[C@H](C[C@@H]2CC(=C)C[C@H](/C=C/C(C)(C)[C@]3(OC)O[C@H](C[C@@H](O)[C@@H](C)OCOCc4ccccc4)C/C(=C\C(=O)OC)[C@@H]3OC(=O)/C=C/C=C/CCC)O2)O[C@H](C[C@H](CC(=O)O)OCc2ccc(OC)cc2)C1, 0.74 mM, 2 steps): 52%

C=C1C[C@H]2C[C@]3(OC)O[C@H](C[C@@H](O[Si](CC)(CC)CC)CC(=O)O[C@@H]([C@@H](C)OCOCc4ccccc4)C[C@@H]4C/C(=C\C(=O)OC)[C@H](OC(=O)/C=C/C=C/CCC)[C@@](OC)(O4)C(C)(C)/C=C/[C@@H](C1)O2)C[C@H](OC(C)=O)C3(C)C
ring closure, yield of all isomers ([1]; from C=C1C[C@@H](C[C@]2(OC)O[C@H](C[C@H](CC(=O)O)O[Si](CC)(CC)CC)C[C@H](OC(C)=O)C2(C)C)O[C@@H](/C=C/C(C)(C)[C@]2(OC)O[C@H](C[C@@H](O)[C@@H](C)OCOCc3ccccc3)C/C(=C\C(=O)OC)[C@@H]2OC(=O)/C=C/C=C/CCC)C1, 0.62 mM, 2 steps): 62%

C=C1CC2C[C@@H](O)CC(=O)O[C@@H]([C@@H](C)O)C[C@@H]3C/C(=C\C(=O)OC)[C@H](OC(C)=O)[C@@](O)(O3)C(C)(C)/C=C/[C@H]3CC(=C)C[C@@H](C[C@@H](C1)O2)O3 [MERLE 35]
CC50 (in vitro): 50 nM | EC50 [2]: 10 nM | Selectivity (CC50:EC50) [2]: greater than one | selectivity ratio [2]: 5

C=C1C[C@@H]2C[C@@H]3CC(=C)C[C@H](/C=C/C(C)(C)[C@]4(OC)O[C@@H](CCC4=O)C[C@H]([C@@H](C)OCOCc4ccccc4)OC(=O)C[C@H](OCc4ccc(OC)cc4)C[C@H](C1)O2)O3
ring closure, yield of all isomers ([1]; from C=C1C[C@H](C[C@@H]2CC(=C)C[C@H](/C=C/C(C)(C)[C@]3(OC)O[C@H](C[C@@H](O)[C@@H](C)OCOCc4ccccc4)CCC3=O)O2)O[C@H](C[C@H](CC(=O)O)OCc2ccc(OC)cc2)C1, 0.85 mM, 2 steps): 87%

C=C1C[C@@H]2C[C@@H]3CC(=C)C[C@H](/C=C/C(C)(C)[C@]4(OC)O[C@@H](C/C(=C\C(=O)OC)[C@@H]4OC(C)=O)C[C@H]([C@@H](C)OCOCc4ccccc4)OC(=O)C[C@H](OCc4ccc(OC)cc4)C[C@H](C1)O2)O3
ring closure, yield of all isomers ([1]; from C=C1C[C@H](C[C@@H]2CC(=C)C[C@H](/C=C/C(C)(C)[C@]3(OC)O[C@H](C[C@@H](O)[C@@H](C)OCOCc4ccccc4)C/C(=C\C(=O)OC)[C@@H]3OC(C)=O)O2)O[C@H](C[C@H](CC(=O)O)OCc2ccc(OC)cc2)C1, 0.97 mM, 2 steps): 58%

C=C1CC2C[C@@H](O)CC(=O)O[C@@H]([C@@H](C)O)C[C@@H]3C/C(=C\C(=O)OC)[C@H](OC(=O)CCCCCN(C)C)[C@@](O)(O3)C(C)(C)/C=C/[C@H]3CC(=C)C[C@@H](C[C@@H](C1)O2)O3 [MERLE 37]
CC50 (in vitro): 550 nM | EC50 [2]: 80 nM | Selectivity (CC50:EC50) [2]: greater than one | selectivity ratio [2]: 6.9
